In patent US20180207294A1, “NON-ALCOHOLIC FATTY LIVER REGULATING FACTOR 14-3-3 PROTEIN” (Korea University Research and Business Foundation, priority 2015, published 2018):

Key:
HepG2 cells [1] = test: PPARγ2 target gene mRNA (PCR) with 14-3-3 overexpression and oleic acid, HepG2 cells; format: cell-based, human; conditions: 14-3-3 overexpression, 200 μM oleic acid 72 hours, FIG. 7A
Method: HepG2 cells were seeded in a 6-well plate at a density of 4×10^5 cells per each well, and then transfected with GFP-14-3-3β DNA (4 μg) or GFP-14-3-3γ DNA (4 μg) using an E-fection plus reagent (Lugen). A ratio of DNA to the E-fection plus reagent was 1:2, and this method was performed according to a manufacturer's manual. After transfection, the cells were treated with 200 μM of oleic acid (OA) for 72 hours, and for mRNA extraction, the corresponding cells were lysed with 1 ml/well of TRIzol (Invitrogen), 200 μl of chloroform was added thereto and mixed well, the resultant cells were maintained at room temperature for 5 minutes and then centrifuged at 12,000×g and 4° C. for 15 minutes, the obtained supernatant was mixed with 500 μl of isopropanol and then put on ice for 10 minutes, and the resulting supernatant was centrifuged at 12,000×g and 4° C. for 15 minutes to remove a supernatant, and then pellets were dissolved with tertiary distilled water treated with diethyl pyrocarbonate (DEPC). 2 μg of mRNA was synthesized into cDNA using a Superscript First Strand cDNA Synthesis Kit (Bioneer, Daejeon, South Korea) and the synthesized cDNA as a template was amplified through polymerase chain reaction (PCR) using primers specific to PPARγ2 (SEQ ID NOS: 1 and 2), 14-3-3β (SEQ ID NOS: 3 and 4), 14-3-3γ (SEQ ID NOS: 5 and 6), SREBP-1c, FAT/CD36, and β-actin of humans, and was amplified through real-time PCR using primers specific to SREBP-1c, FAT/CD36, and GAPDH of mice. β-actin and GAPDH were used as controls to see whether mRNAs of the respective cells were compared in the same amount.

FAT/CD36 promoter = test: Chromatin immunoprecipitation (ChIP) of PPARγ2 on FAT/CD36 promoter, HepG2 cells; format: cell-based; conditions: overexpression of 14-3-3β / 14-3-3γ, FIG. 7C upper side
Method: In addition, for chromatin immunoprecipitation (ChIP), HepG2 cells were seeded in a 100 mm plate at a density of 4×10^6 cells per each well, and then transfected with Flag-PPARγ2 DNA (4 μg), mGST-14-3-3β DNA (4 μg) or mGST-14-3-3γ DNA (4 μg), and si-14-3-3β (20 μM, Santa Cruz) or si-14-3-3γ (20 μM, Santa Cruz) using an E-fection plus reagent (Lugen). A ratio of DNA to the E-fection plus reagent was 1:2, and this method was performed according to a manufacturer's manual. The corresponding cells were treated with 0.75% formaldehyde at room temperature for 15 minutes, glycine was added thereto, and the resulting cells were scraped into ice-cold PBS and centrifuged at 1,000×g and 4° C. for 3 minutes to remove a supernatant, pellets were dissolved with 400 μl of FA lysis buffer (50 mM HEPES, 150 mM NaCl, 2 mM EDTA pH8.0, 1% Triton-X100, 0.1% NaDeoxycholate), and then lysed using a sonicator twice for 10 minutes at a high voltage under the following condition: lysis for […] and resting for 30 seconds. […]
In addition, the binding of PPARγ2 and a binding strength thereof according to the expression of 14-3-3β and 14-3-3γ were evaluated by ChIP assay using a PPAR response element (PPRE) known as a binding site of PPARγ2 present in the FAT/CD36 promoter. […]

HepG2 cells [2] = test: Oil Red-O lipid accumulation, HepG2 cells; format: cell-based; conditions: 14-3-3 overexpression, 200 μM oleic acid 72 hours, FIG. 9B
Method: HepG2 cells and primary mouse hepatocytes were separately seeded in a 6-well plate at a density of 4×10^5 cells per each well, and then transfected with GFP-14-3-3β DNA (1 μg) or GFP-14-3-3γ DNA (1 μg) and si-14-3-3β (10 μM, Santa Cruz) or si-14-3-3γ (10 μM, Santa Cruz) using an E-fection plus reagent (Lugen). A ratio of DNA to the E-fection plus reagent was 1:2, and this method was performed according to a manufacturer's manual. […] The stained cells were bleached with 1 ml of isopropanol and analyzed at a wavelength of 550 nm using a DU530 spectrophotometer (Beckman Instruments, Palo Alto, Calif.).

[3] = system: primary mouse hepatocytes; test: Triglyceride colorimetric assay, primary mouse hepatocytes; format: cell-based; conditions: primary mouse hepatocytes; 14-3-3 overexpression; 200 μM oleic acid 72 hours; FIG. 10A
Method: A triglyceride (neutral fat) is a type of fatty acid and is used as an index of a fat content. A biochemical lipid test was carried out by measuring an amount of triglycerides. HepG2 cells and primary mouse hepatocytes were separately seeded in a 6-well plate at a density of 4×10^5 cells per each well, and then transfected with GFP-14-3-3β DNA (1 μg) or GFP-14-3-3γ DNA (1 μg) and si-14-3-3β (10 μM, Santa Cruz) or si-14-3-3γ (10 μM, Santa Cruz) using an E-fection plus reagent (Lugen). A ratio of DNA to the E-fection plus reagent was 1:2, and this method was performed according to a manufacturer's manual. After transfection, the cells were treated with 200 μM of oleic acid (OA) for 72 hours, and the amount of triglycerides was measured using a triglyceride colorimetric assay kit (Cayman Chemical). The corresponding cells were washed with ice-cold PBS and then scraped using a standard diluent assay reagent, the scrapping process was repeated using a sonicator 20 times to lyse the cells, and the lysed cells were reacted with an enzyme buffer solution for 15 minutes, followed by measurement using an ELISA reader (Bio-Rad Laboratories, Inc) at a wavelength of 550 nm.

Substance | mRNA expression of FAT/CD36 (HepG2 cells [1]) | mRNA expression of SREBP-1c (HepG2 cells [1]) | binding of PPARγ2 to the FAT/CD36 promoter (ChIP) (FAT/CD36 promoter) | lipid accumulation by oleic acid (Oil Red-O) (HepG2 cells [2]) | triglyceride accumulation [3]
14-3-3β: 14-3-3 isoform protein, overexpressed by DNA transfection; regulating factor that increases transcriptional activity of PPARγ2 | further increased | further increased | increased | increased lipid accumulation | further increased
14-3-3γ: 14-3-3 isoform protein, overexpressed by DNA transfection; regulating factor that decreases transcriptional activity of PPARγ2 | reduced | reduced | inhibited | reduced lipid accumulation | reduced triglyceride accumulation
